From patent publication US20210253562A1, “ACYLSUFONAMIDE COMPOUNDS USEFUL AS EP3 RECEPTOR ANTAGONISTS” (Janssen Pharmaceutica NV, priority 2018, published 2021)

Experiments:
[1] = biological target: T1, CHO cells over-expressing the EP3 receptor (Homo sapiens, UniProt P43115); assay: CHO cell cAMP assay; EP3 cAMP antagonist dose response (sulprostone reference), HTRF; format: cell-based; details: sulprostone 700 nM (EC80) and FSK 2 μM (EC70); read-out: CHO_cAMP IC50
T1 construct: expressed in transfected cells; host or cells: CHO cells
T1 sequence (P43115 1-390): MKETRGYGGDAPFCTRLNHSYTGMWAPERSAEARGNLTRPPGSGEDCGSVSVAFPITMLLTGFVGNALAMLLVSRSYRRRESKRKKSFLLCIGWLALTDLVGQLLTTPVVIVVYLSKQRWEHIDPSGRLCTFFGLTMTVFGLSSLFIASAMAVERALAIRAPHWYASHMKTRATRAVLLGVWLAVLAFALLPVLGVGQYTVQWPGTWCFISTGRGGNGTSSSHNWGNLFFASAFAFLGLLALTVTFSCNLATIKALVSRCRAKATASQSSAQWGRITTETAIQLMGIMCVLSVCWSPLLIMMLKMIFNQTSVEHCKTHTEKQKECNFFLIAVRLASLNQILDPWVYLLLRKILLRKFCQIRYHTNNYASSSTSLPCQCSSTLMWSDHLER
Outline: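 EP3-overexpressing CHO cells pre-incubated with test compound, then stimulated 30 min at 37 °C with FSK (2 μM, EC70) plus sulprostone (700 nM, EC80); antagonism seen as restored cAMP. cAMP measured by HTRF 665/615 ratio, converted via on-plate standard curve. IC50 from Hill fit of 11-point dosing.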

[2] = biological target: T2, EP3 membrane (EP3 receptor) (Homo sapiens, UniProt P43115); assay: [3H]-PGE2 binding; EP3 competition binding (SPA)
T2 construct: purchased Millipore HTS092M
T2 sequence (P43115 1-390): T1 sequence (P43115 1-390)
Outline: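 Ki derived from one-site nonlinear regression of scintillation proximity counts after 2 h room-temperature equilibration. Serially diluted (1:3) compounds competed against [3H]-PGE2 (2 nM) for EP3 receptor membranes (2 μg/well) in pH 7.4 Tris buffer with 10 mM MgCl2, 1 mM EDTA, 0.1% DMSO.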

IC50 [1]	Ki [2]	SMILES
120 nM	171 nM	O=C(NC/C(F)=C1\CCCCc2cnn(Cc3ccc(Cl)cc3Cl)c21)NS(=O)(=O)c1ccc(Cl)cc1 [Compound #98, (Z)-4-chloro-N-((2-(1-(2,4-dichlorobenzyl)-4,5,6,7-tetrahydrocyclohepta[c]pyrazol-8(1H)-ylidene)-2-fluoroethyl)carbamoyl)benzenesulfonamide]
9 nM	1 nM	O=C(NC/C=C1\CCCc2cnn(-c3ccc(-c4ccccc4)cc3)c21)NS(=O)(=O)c1cc(Cl)c(Cl)s1 [Compound #99, (E)-N-((2-(1-([1,1′-biphenyl]-4-yl)-1,4,5,6-tetrahydro-7H-indazol-7-ylidene)ethyl)carbamoyl)-4,5-dichlorothiophene-2-sulfonamide]
7 nM	3 nM	O=C(NC/C(F)=C1/c2c(cnn2Cc2ccc(Cl)cc2Cl)CCC1F)NS(=O)(=O)c1cc(Cl)c(Cl)s1 (stereo not shown) [Compound #100, (E)-4,5-dichloro-N-((2-(1-(2,4-dichlorobenzyl)-6-fluoro-1,4,5,6-tetrahydro-7H-indazol-7-ylidene)-2-fluoroethyl)carbamoyl)thiophene-2-sulfonamide]
144 nM	53 nM	O=C(NC/C(F)=C1/c2c(cnn2Cc2ccc(Cl)cc2Cl)CCC1F)NS(=O)(=O)c1ccc(Cl)cc1 (stereo not shown) [Compound #101, (E)-4-chloro-N-((2-(1-(2,4-dichlorobenzyl)-6-fluoro-1,4,5,6-tetrahydro-7H-indazol-7-ylidene)-2-fluoroethyl)carbamoyl)benzenesulfonamide]
> 20000 nM	> 10000 nM	O=C(NC/C(F)=C1/CCCCc2cnn(Cc3ccc(Cl)cc3Cl)c21)NS(=O)(=O)c1ccc(Cl)cc1 [Compound #102, (E)-4-chloro-N-((2-(1-(2,4-dichlorobenzyl)-4,5,6,7-tetrahydrocyclohepta[c]pyrazol-8(1H)-ylidene)-2-fluoroethyl)carbamoyl)benzenesulfonamide]
228 nM	54 nM	COc1ccc(Cl)cc1S(=O)(=O)NC(=O)NC/C(F)=C1/c2c(cnn2Cc2ccc(Cl)cc2Cl)CCC1F (stereo not shown) [Compound #103, (E)-5-chloro-N-((2-(1-(2,4-dichlorobenzyl)-6-fluoro-1,4,5,6-tetrahydro-7H-indazol-7-ylidene)-2-fluoroethyl)carbamoyl)-2-methoxybenzenesulfonamide]
> 20000 nM	> 10000 nM	O=C(NC/C(F)=C1\COCc2cnn(-c3cccc(C(F)(F)F)c3)c21)NS(=O)(=O)c1ccc(Cl)cc1 [Compound #104, (E)-4-chloro-N-((2-fluoro-2-(1-(3-(trifluoromethyl)phenyl)-1,4-dihydropyrano[4,3-c]pyrazol-7(6H)-ylidene)ethyl)carbamoyl)benzenesulfonamide]
294 nM	238 nM	COc1ccc(-n2ncc3c2/C(=C/CNC(=O)NS(=O)(=O)c2ccc(Cl)cc2)CCC3)cn1 [Compound #105, (E)-4-chloro-N-((2-(1-(6-methoxypyridin-3-yl)-1,4,5,6-tetrahydro-7H-indazol-7-ylidene)ethyl)carbamoyl)benzenesulfonamide]
> 20000 nM	> 10000 nM	COc1ccc(Cl)cc1S(=O)(=O)NC(=O)NC/C(F)=C1/CCCc2cnn(-c3ccc4ccccc4c3)c21 [Compound #106, (E)-5-chloro-N-((2-fluoro-2-(1-(naphthalen-2-yl)-1,4,5,6-tetrahydro-7H-indazol-7-ylidene)ethyl)carbamoyl)-2-methoxybenzenesulfonamide]
27 nM	2 nM	COc1ccc(-n2ncc3c2/C(=C/CNC(=O)NS(=O)(=O)c2cc(Cl)c(Cl)s2)CCC3)cn1 [Compound #107, (E)-4,5-dichloro-N-((2-(1-(6-methoxypyridin-3-yl)-1,4,5,6-tetrahydro-7H-indazol-7-ylidene)ethyl)carbamoyl)thiophene-2-sulfonamide]
60 nM	7 nM	Cc1nn(Cc2ccc(Cl)cc2Cl)c2c1CCC/C2=C(/F)CNC(=O)NS(=O)(=O)c1cc(Cl)c(Cl)s1 [Compound #109, (Z)-4,5-dichloro-N-((2-(1-(2,4-dichlorobenzyl)-3-methyl-1,4,5,6-tetrahydro-7H-indazol-7-ylidene)-2-fluoroethyl)carbamoyl)thiophene-2-sulfonamide]
> 20000 nM	> 10000 nM	O=C(NC/C(F)=C1/CCCc2cnn(-c3ccc4ccccc4c3)c21)NS(=O)(=O)c1ccc2c(c1)OCCO2 [Compound #110, (E)-N-((2-fluoro-2-(1-(naphthalen-2-yl)-1,4,5,6-tetrahydro-7H-indazol-7-ylidene)ethyl)carbamoyl)-2,3-dihydrobenzo[b][1,4]dioxine-6-sulfonamide]
399 nM	59 nM	O=C(NC/C(F)=C1\CCCc2cnn(Cc3ccc(Cl)cc3Cl)c21)NS(=O)(=O)c1cc2ccccc2o1 [Compound #111, (Z)—N-((2-(1-(2,4-dichlorobenzyl)-1,4,5,6-tetrahydro-7H-indazol-7-ylidene)-2-fluoroethyl)carbamoyl)benzofuran-2-sulfonamide]
> 20000 nM	> 10000 nM	COc1ccc(F)cc1S(=O)(=O)NC(=O)NC/C(F)=C1/CCCc2cnn(-c3ccc4ccccc4c3)c21 [Compound #112, (E)-5-fluoro-N-((2-fluoro-2-(1-(naphthalen-2-yl)-1,4,5,6-tetrahydro-7H-indazol-7-ylidene)ethyl)carbamoyl)-2-methoxybenzenesulfonamide]
6900 nM	4100 nM	COc1ccc(F)cc1S(=O)(=O)NC(=O)NC/C(F)=C1\CCCc2cnn(-c3ccc4ccccc4c3)c21 [Compound #113, (Z)-5-fluoro-N-((2-fluoro-2-(1-(naphthalen-2-yl)-1,4,5,6-tetrahydro-7H-indazol-7-ylidene)ethyl)carbamoyl)-2-methoxybenzenesulfonamide]
> 20000 nM	14500 nM	O=C(NC/C(F)=C1\CCCc2cnn(-c3ccc4ccccc4c3)c21)NS(=O)(=O)c1ccc2c(c1)OCCO2 [Compound #114, (Z)—N-((2-fluoro-2-(1-(naphthalen-2-yl)-1,4,5,6-tetrahydro-7H-indazol-7-ylidene)ethyl)carbamoyl)-2,3-dihydrobenzo[b][1,4]dioxine-6-sulfonamide]
4200 nM	1100 nM	COc1ccc(Cl)cc1S(=O)(=O)NC(=O)NC/C(F)=C1\CCCc2cnn(-c3ccc4ccccc4c3)c21 [Compound #115, (Z)-5-chloro-N-((2-fluoro-2-(1-(naphthalen-2-yl)-1,4,5,6-tetrahydro-7H-indazol-7-ylidene)ethyl)carbamoyl)-2-methoxybenzenesulfonamide]
> 20000 nM	4100 nM	O=C(NC/C(F)=C1\CCCc2cnn(-c3ccc(C(F)(F)F)cc3)c21)NS(=O)(=O)c1ccc2c(c1)OCCO2 [Compound #116, (Z)—N-((2-fluoro-2-(1-(4-(trifluoromethyl)phenyl)-1,4,5,6-tetrahydro-7H-indazol-7-ylidene)ethyl)carbamoyl)-2,3-dihydrobenzo[b][1,4]dioxine-6-sulfonamide]
> 20000 nM	> 10000 nM	O=C(NC/C(F)=C1/CCCc2cnn(-c3ccc(C(F)(F)F)cc3)c21)NS(=O)(=O)c1ccc2c(c1)OCCO2 [Compound #117, (E)-N-((2-fluoro-2-(1-(4-(trifluoromethyl)phenyl)-1,4,5,6-tetrahydro-7H-indazol-7-ylidene)ethyl)carbamoyl)-2,3-dihydrobenzo[b][1,4]dioxine-6-sulfonamide]
16000 nM	2000 nM	O=C(NC/C(F)=C1\COCc2cnn(-c3ccc(C(F)(F)F)cc3)c21)NS(=O)(=O)c1ccc(Cl)cc1 [Compound #118, (E)-4-chloro-N-((2-fluoro-2-(1-(4-(trifluoromethyl)phenyl)-1,4-dihydropyrano[4,3-c]pyrazol-7(6H)-ylidene)ethyl)carbamoyl)benzenesulfonamide]
230 nM	43 nM	O=C(NC/C(F)=C1\COCc2cnn(-c3ccc(C(F)(F)F)cc3)c21)NS(=O)(=O)c1cc(Cl)c(Cl)s1 [Compound #119, (E)-4,5-dichloro-N-((2-fluoro-2-(1-(4-(trifluoromethyl)phenyl)-1,4-dihydropyrano[4,3-c]pyrazol-7(6H)-ylidene)ethyl)carbamoyl)thiophene-2-sulfonamide]
12 nM	10 nM	O=C(NC/C(F)=C1\CCCCc2cnn(Cc3ccc(Cl)cc3Cl)c21)NS(=O)(=O)c1cc(Cl)c(Cl)s1 [Compound #120, (Z)-4,5-dichloro-N-((2-(1-(2,4-dichlorobenzyl)-4,5,6,7-tetrahydrocyclohepta[c]pyrazol-8(1H)-ylidene)-2-fluoroethyl)carbamoyl)thiophene-2-sulfonamide]
159 nM	17 nM	O=C(NC/C(F)=C1\CCCc2cnn(Cc3ccc(Cl)cc3Cl)c21)NS(=O)(=O)c1cc2ccccc2s1 [Compound #121, (Z)—N-((2-(1-(2,4-dichlorobenzyl)-1,4,5,6-tetrahydro-7H-indazol-7-ylidene)-2-fluoroethyl)carbamoyl)benzo[b]thiophene-2-sulfonamide]
